From paper PMC3615439 (Medicinal chemistry, 2011)

Experiments:
[1] = biological target: σ1 receptors (Cavia porcellus, UniProt Q60492); assay: σ1 receptor binding, competition against [3H]; parameters: species or system guinea pig; conditions: for fold lower σ1 receptor affinity than positional isomers: 2-substituted ligand versus its 3- and/or 4-substituted isomers; for Hill Slope: guinea pig brain membranes, mean ± SEM
[2] = Lipophilicity by reverse-phase HPLC; format: physicochemical; conditions: aqueous phase pH 7.5, text calls it log k′w

Sequence of σ1 receptors (Q60492 whole entry): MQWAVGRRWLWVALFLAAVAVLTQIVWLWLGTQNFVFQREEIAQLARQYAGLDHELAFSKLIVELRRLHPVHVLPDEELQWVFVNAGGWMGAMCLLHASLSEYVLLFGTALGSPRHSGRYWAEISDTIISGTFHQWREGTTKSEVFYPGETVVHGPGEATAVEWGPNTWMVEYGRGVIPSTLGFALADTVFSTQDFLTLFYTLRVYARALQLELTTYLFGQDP

SMILES | IC50 [1] [nM] | Ki [1] [nM] | fold lower σ1 receptor affinity than positional isomers [1] [fold] | Hill Slope [1] | fold poorer Ki value than compounds 6 or 9 ([1]; 4-iodo versus 4-fluoro or 4-bromo derivative) [fold] | k′w [2]
Clc1ccc(CCNCCNCCc2ccccc2I)cc1Cl [Compound 10, N-[2-(3,4-Dichlorophenyl)-ethyl]-N′-[2-(2-iodophenyl)-ethyl]-ethane-1,2-diamine] | 62.5 ± 0.96 | 43.2 ± 0.66 | 2.7 | −1.12 ± 0.03 |  | 
Clc1ccc(CCNCCNCCc2ccc(I)cc2)cc1Cl [Compound 11, N-[2-(3,4-Dichlorophenyl)-ethyl]-N′-[2-(4-iodophenyl)-ethyl]-ethane-1,2-diamine] | 22.9 ± 0.94 | 15.8 ± 0.65 |  | −1.59 ± 0.08 | 2 | 3.71 ± 0.05
Clc1ccc(CCNCCNCCc2ccccc2Br)cc1Cl [Compound 7, N-[2-(2-Bromophenyl)-ethyl]-N′-[2-(3,4-dichlorophenyl)-ethyl]-ethane-1,2-diamine] | 26.6 ± 3.95 | 18.4 ± 2.73 | 2.7 | −0.78 ± 0.03 |  | 3.09 ± 0.05
Clc1ccc(CCNCCNCCc2cccc(Br)c2)cc1Cl [Compound 8, N-[2-(3-Bromophenyl)-ethyl]-N′-[2-(3,4-dichlorophenyl)-ethyl]-ethane-1,2-diamine] | 9.14 ± 0.85 | 6.35 ± 0.59 |  | −1.02 ± 0.15 |  | 3.06 ± 0.07
Fc1ccc(CCNCCNCCc2ccc(Cl)c(Cl)c2)cc1 [Compound 6, N-[2-(3,4-Dichlorophenyl)-ethyl]-N′-[2-(4-fluorophenyl)-ethyl]-ethane-1,2-diamine] | 11.3 ± 2.02 | 7.83 ± 1.39 |  | −1.21 ± 0.05 |  | 2.54 ± 0.05
Clc1ccc(CCNCCNCCc2ccc(Br)cc2)cc1Cl [Compound 9, N-[2-(4-Bromophenyl)-ethyl]-N′-[2-(3,4-dichlorophenyl)-ethyl]-ethane-1,2-diamine] | 9.85 ± 3.92 | 6.8 ± 2.71 |  | −1.00 ± 0.02 |  | 3.31 ± 0.08
Fc1cccc(CCNCCNCCc2ccc(Cl)c(Cl)c2)c1 [Compound 5, N-[2-(3,4-Dichlorophenyl)-ethyl]-N′-[2-(3-fluorophenyl)-ethyl]-ethane-1,2-diamine] | 11.2 ± 1.29 | 7.74 ± 0.89 |  | −1.13 ± 0.09 |  | 2.54
Fc1ccccc1CCNCCNCCc1ccc(Cl)c(Cl)c1 [Compound 4, N-[2-(3,4-Dichlorophenyl)-ethyl]-N′-[2-(2-fluorophenyl)-ethyl]-ethane-1,2-diamine] | 17.5 ± 0.31 | 12.1 ± 0.22 | 1.5 | −1.07 ± 0.01 |  | 
